From BigSolDB 2.1

C[C@H]1O[C@@H](n2cc(F)c(=O)[nH]c2=O)[C@H](O)[C@@H]1O
solubility (mole fraction)
Conditions | in 2-ethylhexanol | in methanol
278.15 K | 1.43e-05 | 0.00296
283.15 K | 2.23e-05 | 0.00334
288.15 K | 3.13e-05 | 0.00414
293.15 K | 4.66e-05 | 0.00466
298.15 K | 6.85e-05 | 0.00561
303.15 K | 9.63e-05 | 0.00653
308.15 K | 0.000139 | 0.00757
313.15 K | 0.000182 | 0.00849
318.15 K | 0.000252 | 0.0101
323.15 K | 0.000373 | 0.0113
328.15 K | 0.000496 | 0.0133
